Measurements published in paper PMC12528448, “Resistance to CDK7 inhibitors directed by acquired mutation of a conserved residue in cancer cells” (The EMBO Journal, 2025).
Several values for one entry are separate records, joined by “and”; a condition that tells them apart may be missing. Equal entries are not always repeated.

Legend:
[1] = tested on: 22Rv1 cells; test: Growth assay (SRB), 22Rv1; format: cell-based, human
Protocol: To determine the IC50 of drug treatments on growth, cells were seeded in 96-well culture plates. Two days after seeding, the cells were treated with increasing concentrations of drugs and incubated for 4 days. Cell number was determined using the SRB assay (Skehan et al, [1990]), and IC50 values were calculated using non-linear regression curve fitting in GraphPad Prism v10. For all other growth experiments, cells were seeded into 96-well plates, and appropriate drugs were added 2 days after seeding. Cells were then incubated in an IncuCyte Zoom live-cell imager, with cell confluency measured every 6 h. Cell doubling times were determined by non-linear curve fitting (exponential growth equation) in GraphPad Prism v10.

[2] = tested on: MCF7 cells; test: Growth assay (SRB), MCF7; format: cell-based, human; conditions: for IC50: 4 days, SRB; for % Growth: biological reps
How it was run: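 Cells are seeded and, two days later, exposed to drug. The SRB endpoint follows 4 days of treatment across increasing doses and yields IC50 by nonlinear regression. The confluency assays instead monitor growth every 6 h and report doubling time from an exponential model.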

[3] = 22Rv1, Log10 Conc. (nM) 0.09, 4 days, biological reps
[4] = 22Rv1, Log10 Conc. (nM) 0.69, 4 days, biological reps
[5] = 22Rv1, Log10 Conc. (nM) 1.29, 4 days, biological reps
[6] = 22Rv1, Log10 Conc. (nM) 1.89, 4 days, biological reps
[7] = 22Rv1, Log10 Conc. (nM) 2.49, 4 days, biological reps
[8] = 22Rv1, Log10 Conc. (nM) 3.10, 4 days, biological reps
[9] = 22Rv1, Log10 Conc. (nM) 3.70, 4 days, biological reps
[10] = 22Rv1, Log10 Conc. (nM) 4.30, 4 days, biological reps
[11] = 22Rv1, Log10 Conc. (nM) -0.52, 4 days, biological reps

SMILES | % Growth ([1]; 22Rv1, Log10 Conc. (nM) 0.09) | % Growth ([1]; 22Rv1, Log10 Conc. (nM) 0.69) | % Growth ([1]; 22Rv1, Log10 Conc. (nM) 1.29) | % Growth ([1]; 22Rv1, Log10 Conc. (nM) 1.89) | % Growth ([1]; 22Rv1, Log10 Conc. (nM) 2.49) | % Growth ([1]; 22Rv1, Log10 Conc. (nM) 3.10) | % Growth ([1]; 22Rv1, Log10 Conc. (nM) 3.70) | % Growth ([1]; 22Rv1, Log10 Conc. (nM) -0.52) | % Growth [1, 3] | % Growth [1, 4] | % Growth [1, 5] | % Growth [1, 6] | % Growth [1, 7] | % Growth [1, 8] | % Growth [1, 9] | % Growth [1, 10] | % Growth [1, 11] | % Growth ([2]; Log10 Conc. (nM) 0.09, 4 days) | % Growth ([2]; Log10 Conc. (nM) 3.70, 4 days) | % Growth ([2]; Log10 Conc. (nM) -0.52, 4 days) | also measured
CC(C)c1cnn2c(NCc3ccccc3-n3cccn3)nc(OC3CCCNC3)nc12 (stereo not shown) [LDC4297] | 67.07% and 96.13% | 66.51% and 88.13% | 42.25% and 51.76% | 9.89% and 17.57% | 11.47% and 9.07% | 2.69% and 4.03% | -4.63% and -0.97% | 95.29% and 95.79% | 97.43% and 97.15% | 91.35% and 89.50% | 69.89% and 67.14% | 34.11% and 32.16% | 25.80% and 22.21% | 19.07% and 18.11% | 12.19% and 10.17% | -1.74% and -5.36% | 96.00% and 93.75% | 91.12% and 94.99% and 92.39% | -7.82% and -0.67% and -1.06% | 95.85% and 97.88% and 93.10% | % Growth ([1]; 22Rv1, Log10 Conc. (nM) 4.30): -12.52% and -9.59%; IC50 [2]: 7.3 nM; % Growth ([2]; Log10 Conc. (nM) 0.69, 4 days): 52.29% and 66.02% and 70.05%; % Growth ([2]; Log10 Conc. (nM) 1.29, 4 days): 18.87% and 28.85% and 28.07%; % Growth ([2]; Log10 Conc. (nM) 2.49, 4 days): 9.82% and 18.59% and 16.86%; % Growth ([2]; Log10 Conc. (nM) 4.30, 4 days): -10.31% and -1.91% and -1.69%
CC1(C)CC[C@H](Nc2ncc(C(F)(F)F)c(-c3c[nH]c4c(P(C)(C)=O)c(C#N)ccc34)n2)CN1 [SY-5609] | 59.88% and 63.28% | 24.70% and 25.33% | 14.01% and 10.35% | 12.24% and 10.17% | 11.07% and 8.36% | 1.88% and 3.47% | 0.13% and -0.45% | 83.49% and 90.26% | 82.01% and 80.30% | 43.29% and 45.22% | 12.60% and 14.50% | 17.65% and 20.49% | 15.20% and 17.83% | 8.43% and 10.99% | 4.30% and 6.00% | -11.21% and -9.41% | 88.38% and 88.87% | 43.96% and 47.02% and 63.49% and 64.31% | -10.60% and -11.04% and -2.07% and -2.25% | 82.42% and 80.79% and 92.64% and 94.88% | % Growth ([1]; 22Rv1, Log10 Conc. (nM) -1.12): 94.90% and 93.56%; IC50 ([2]; Homo sapiens, 96 h): 1.4 nM; % Growth ([2]; Log10 Conc. (nM) -1.12, 4 days): 91.04% and 90.64% and 92.12% and 97.41%
CN(C)C/C=C/C(=O)Nc1ccc(C(=O)Nc2cccc(Nc3ncc(Cl)c(-c4c[nH]c5ccccc45)n3)c2)cc1 [THZ1] |  |  |  |  |  |  |  |  | 93.20% and 88.05% | 85.45% and 77.80% | 56.44% and 44.90% | 5.80% and -0.07% | -4.12% and -6.31% | -6.49% and -7.67% | -6.63% and -7.61% |  | 98.36% and 93.94% | 91.30% and 94.59% and 94.55% | -9.74% and -3.96% and -4.65% | 92.77% and 97.61% and 102.10% | % Growth ([1]; 22Rv1, Log10 Conc. (nM) -1.12, 4 days, biological reps): 96.18% and 94.83%; IC50 [2]: 153 nM; % Growth ([2]; Log10 Conc. (nM) 0.69, 4 days): 87.28% and 92.52% and 92.40%; % Growth ([2]; Log10 Conc. (nM) 1.29, 4 days): 80.95% and 90.37% and 89.19%; % Growth ([2]; Log10 Conc. (nM) 1.89, 4 days): 64.20% and 77.72% and 79.90%; % Growth ([2]; Log10 Conc. (nM) 3.10, 4 days): -9.63% and -1.23% and -2.34%; % Growth ([2]; Log10 Conc. (nM) -1.12, 4 days): 92.06% and 94.91% and 96.97%
